Measured values taken from the NIST ThermoML archive (doi:10.1016/j.jct.2003.09.010).
Numbers after ± are expanded uncertainties.

Experiment: mn = molality of the nth substance listed, in mol/kg
Settings: 298.15 K, 101 kPa, Liquid

Row | mass density (m1 = 0.05) | mass density (m1 = 0.5) | SMILES | mass density (m1 = 1)
1 | – | – | CCCCCCCCCCCCCCCC[N+](C)(C)C.[Br-] [N,N,N-trimethyl-1-hexadecanaminium bromide] + O | 1004.43 ± 0.46 kg/m3
2 | 999.133 ± 0.27 kg/m3 [middle of 5 runs] | 1014.57 ± 0.3 kg/m3 [middle of 5 runs] | CCCCCCCCCCCCOS(=O)(=O)[O-].[Na+] [sodium dodecyl sulfate] + O | 1027.43 ± 0.33 kg/m3 [middle of 7 runs]
